The values that follow come from paper PMC5421785, “Citrullination only infrequently impacts peptide binding to HLA class II MHC” (PLoS ONE, 2017).

As a reminder, the IC50 is the concentration that gives 50% inhibition.

One assay has as its target T1, HLA-DRB1*01:01 (Homo sapiens, UniProt P01903+P01911, A100R/D57E/F55L/F60I/F76Y/I96L/L162R/M171V/P40L/Q125E/R42F/V115G/Y59C).
T1 construct: EBV transformed homozygous cell lines were used as sources of MHC molecules; endogenous in cells; host or cells: EBV transformed homozygous cell lines
Description: HLA class II peptide binding, inhibition of radiolabeled peptide binding to purified MHC.

In a further assay the target is T2, HLA-DRB1*04:01 (Homo sapiens, UniProt P01903+P01911, A100K/A169T/F76Y/I96L/K127E/L162R/M171V/N62H/P40V/Q125Y/R42H/S133A/S149N/S66Y/V115G/V209L/W38E).
T2 construct: EBV transformed homozygous cell lines were used as sources of MHC molecules; endogenous in cells; host or cells: EBV transformed homozygous cell lines
The description is as above.

[1] abbreviates: citrullinated peptide as listed (X at Cit position), read-out: DRB1*01:01 binding capacity Cit peptide (IC50 nM).
[2] abbreviates: value of the wild-type (non-citrullinated) counterpart of the listed peptide, read-out: DRB1*01:01 binding capacity WT peptide (IC50 nM).
[3] abbreviates: citrullinated peptide as listed (X at Cit position), read-out: DRB1*04:01 binding capacity Cit peptide (IC50 nM).
Setting [4] is: value of the wild-type (non-citrullinated) counterpart of the listed peptide, read-out: DRB1*04:01 binding capacity WT peptide (IC50 nM).
The mark [5] stands for this setting: citrullinated 15-mer peptide (X = citrulline), purified HLA-DRB1*01:01, read-out: DRB1*01:01 binding capacity, Cit peptide (IC50 nM).
Where [6] appears, read: citrullinated 15-mer peptide (X = citrulline), purified HLA-DRB1*04:01, read-out: DRB1*04:01 binding capacity, Cit peptide (IC50 nM).
Where [7] appears, read: ratio of WT IC50 to Cit IC50, >1 = citrullination increases binding.

Where two headings read alike, the source gives them in different places. Square brackets hold non-standard residues; d marks the D form. Peptide text beside a SMILES is read from it. Cit = NC(=O)NCCC[C@H](N)C(=O)O

Take `CC[C@H](C)[C@H](NC(=O)[C@@H](NC(=O)[C@@H](NC(=O)[C@H](CCCCN)NC(=O)CN)[C@@H](C)O)C(C)C)C(=O)N[C@@H](CCC(=O)O)C(=O)N[C@@H](Cc1ccc(O)cc1)C(=O)N[C@@H](CCCNC(=N)N)C(=O)N[C@@H](CO)C(=O)N[C@@H](CCC(N)=O)C(=O)N[C@@H](CCCCN)C(=O)N[C@H](C(=O)N[C@@H](CO)C(=O)N[C@@H](CCCNC(N)=O)C(=O)N[C@@H](CC(C)C)C(=O)O)[C@@H](C)O` [GKTVIEYRSQKTSXL] (H-GKTVIEYRSQKTS[Cit]L-OH): the IC50 on HLA-DRB1*01:01 (setting [1]) worked out at 9.3 nM; at HLA-DRB1*01:01 (setting [2]), 29 nM; at HLA-DRB1*04:01 (setting [3]) it was 138 nM; at HLA-DRB1*04:01 (setting [4]), 646 nM.
Regarding `CC[C@H](C)[C@H](NC(=O)[C@@H](NC(=O)[C@@H](NC(=O)[C@H](CCCCN)NC(=O)CN)[C@@H](C)O)C(C)C)C(=O)N[C@@H](CCC(=O)O)C(=O)N[C@@H](Cc1ccc(O)cc1)C(=O)N[C@@H](CCCNC(N)=O)C(=O)N[C@@H](CO)C(=O)N[C@@H](CCC(N)=O)C(=O)N[C@@H](CCCCN)C(=O)N[C@H](C(=O)N[C@@H](CO)C(=O)N[C@@H](CCCNC(=N)N)C(=O)N[C@@H](CC(C)C)C(=O)O)[C@@H](C)O` [GKTVIEYXSQKTSRL] (H-GKTVIEY[Cit]SQKTSRL-OH), the IC50 at HLA-DRB1*01:01 (setting [1]) was found to be 7.1 nM; on HLA-DRB1*01:01 (setting [2]) it was 29 nM; at HLA-DRB1*04:01 (setting [3]), 153 nM; at HLA-DRB1*04:01 (setting [4]), 646 nM.
Take `CC(C)C[C@H](NC(=O)CNC(=O)[C@@H]1CCCN1C(=O)[C@H](C)NC(=O)CNC(=O)[C@@H]1CCCN1C(=O)[C@H](CC(C)C)NC(=O)CN)C(=O)N[C@@H](CCCNC(N)=O)C(=O)NCC(=O)N[C@@H](CC(C)C)C(=O)N1CCC[C@H]1C(=O)NCC(=O)N[C@@H](CCCCN)C(=O)N[C@@H](CC(=O)O)C(=O)O` [GLPGAPGLXGLPGKD] (H-GLPGAPGL[Cit]GLPGKD-OH): the IC50 at HLA-DRB1*01:01 (setting [5]) was 514 nM; on HLA-DRB1*04:01 (setting [6]) it was above 40000 nM.
Take `CSCC[C@H](NC(=O)[C@@H](NC(=O)CNC(=O)[C@@H]1CCCN1C(=O)[C@H](CCC(N)=O)NC(=O)CNC(=O)[C@H](CCCNC(N)=O)NC(=O)[C@H](C)NC(=O)CNC(=O)[C@H](CCC(N)=O)NC(=O)[C@@H]1CCCN1C(=O)CN)C(C)C)C(=O)NCC(=O)N[C@@H](Cc1ccccc1)C(=O)N1CCC[C@H]1C(=O)O` [GPQGAXGQPGVMGFP] (H-GPQGA[Cit]GQPGVMGFP-OH): the IC50 was determined as 64 nM on HLA-DRB1*01:01 (setting [5]) and 14900 nM on HLA-DRB1*04:01 (setting [6]).
Take `N=C(N)NCCC[C@H](NC(=O)[C@H](CCC(=O)O)NC(=O)CNC(=O)[C@H](CCCNC(=N)N)NC(=O)[C@@H]1CCCN1C(=O)CN)C(=O)NCC(=O)N[C@@H](Cc1ccccc1)C(=O)N1CCC[C@H]1C(=O)NCC(=O)N[C@@H](CCC(=O)O)C(=O)N[C@@H](CCCNC(N)=O)C(=O)NCC(=O)N[C@@H](CO)C(=O)N1CCC[C@H]1C(=O)O` [GPRGERGFPGEXGSP] (H-GPRGERGFPGE[Cit]GSP-OH): the IC50 at HLA-DRB1*01:01 (setting [5]) is 31100 nM; at HLA-DRB1*04:01 (setting [6]) it was above 40000 nM.
For `N=C(N)NCCC[C@H](NC(=O)[C@H](CCC(=O)O)NC(=O)CNC(=O)[C@@H]1CCCN1C(=O)[C@H](Cc1ccccc1)NC(=O)CNC(=O)[C@H](CCCNC(N)=O)NC(=O)[C@H](CCC(=O)O)NC(=O)CNC(=O)[C@H](CCCNC(=N)N)NC(=O)[C@@H]1CCCN1C(=O)CN)C(=O)NCC(=O)N[C@@H](CO)C(=O)N1CCC[C@H]1C(=O)O` [GPRGEXGFPGERGSP] (H-GPRGE[Cit]GFPGERGSP-OH) the same measures were 18000 nM and above 40000 nM.
As for `C[C@H](NC(=O)CNC(=O)[C@H](CCCCN)NC(=O)[C@@H]1CCCN1C(=O)CNC(=O)[C@H](CC(=O)O)NC(=O)[C@H](CCCCN)NC(=O)CNC(=O)[C@H](CO)NC(=O)[C@@H]1CCCN1C(=O)CN)C(=O)N[C@@H](CCCNC(N)=O)C(=O)NCC(=O)N[C@@H](CC(=O)O)C(=O)N[C@@H](CO)C(=O)O` [GPSGKDGPKGAXGDS] (H-GPSGKDGPKGA[Cit]GDS-OH; N-terminus and C-terminus assumed), the half-maximal inhibitory concentration (IC50) at HLA-DRB1*01:01 (setting [5]) and on HLA-DRB1*04:01 (setting [6]) was above 40000 nM in each case. Further, at HLA-DRB1*01:01 (setting [7]), the “DRB1*01:01 binding capacity, WT/cit ratio” value worked out at 1.0. In addition, on HLA-DRB1*04:01 (setting [7]), the “DRB1*04:01 binding capacity, WT/cit ratio” value stood at 1.0.
In the case of `CC(C)[C@H](NC(=O)CNC(=O)[C@@H](NC(=O)[C@@H]1CCCN1C(=O)CN)[C@@H](C)O)C(=O)N[C@H](C(=O)NCC(=O)N1CCC[C@H]1C(=O)N[C@@H](CCCCN)C(=O)NCC(=O)N[C@@H](C)C(=O)N[C@@H](CCCNC(N)=O)C(=O)NCC(=O)N[C@@H](C)C(=O)N[C@@H](CCC(N)=O)C(=O)O)[C@@H](C)O` [GPTGVTGPKGAXGAQ] (H-GPTGVTGPKGA[Cit]GAQ-OH), the IC50 is 569 nM on HLA-DRB1*01:01 (setting [5]) and above 40000 nM on HLA-DRB1*04:01 (setting [6]).
